{
  "source": "paper PMC3589659",
  "about": "(Investigational New Drugs, 2012)",
  "key": {"[1]": {"tested_on": "patients with advanced solid tumors", "assay": "Safety and tolerability: adverse events graded by CTCAE version 3.0", "assay_type": "in vivo, human"}, "[2]": {"tested_on": "p27^KIP1 in epidermal keratinocytes", "assay": "Pharmacodynamics: immunohistochemistry on skin punch biopsies, p27KIP1", "settings": "doses of ≥ 55 mg/day, Day 21"}, "[3]": {"tested_on": "patients with advanced solid tumors", "assay": "Phase I dose escalation: dose-limiting toxicities and maximum tolerated dose", "settings": "oral once daily, 3-week-on/1-week-off schedule"}, "[4]": {"settings": "human, in vivo"}, "[5]": {"assay": "Plasma pharmacokinetics, non-compartmental analysis", "settings": "65 mg once daily, Day 21, individual values of 2 patients"}, "[6]": {"tested_on": "pMAPK in epidermal keratinocytes", "assay": "Pharmacodynamics: immunohistochemistry on skin punch biopsies, pMAPK", "settings": "pretreatment versus on-therapy (Day 21)"}, "[7]": {"tested_on": "Ki-67 in epidermal keratinocytes", "settings": "doses of ≥ 55 mg/day, Day 21 versus pretreatment"}, "[8]": {"tested_on": "patients with advanced solid tumors", "settings": "human, in vivo"}, "clinical": {"assay": "clinical", "settings": "human, in vivo; for AUC(0-t): AUC0–24,ss; for CL/F: CL/Fss; for Cmax: Cmax,ss; for Vd/F: Vz/Fss"}, "[9]": {"tested_on": "pAkt in epidermal keratinocytes", "assay": "Pharmacodynamics: immunohistochemistry on skin punch biopsies, pAkt", "settings": "pretreatment versus on-therapy (Day 21)"}, "advanced solid tumors": {"tested_on": "advanced solid tumors", "assay": "Antitumor activity, objective tumor response by RECIST 1.0"}},
  "note": "Read-outs that look alike come from different tables or passages of the source. Marks after values point to notes of the source that are not given here.",
  "data": [
    {"compound": "CN(C)C/C=C/C(=O)Nc1cc2c(Nc3ccc(F)c(Cl)c3)ncnc2cc1O[C@H]1CCOC1", "note": "[afatinib]", "values": [
      {"measurement": "drug-related diarrhea", "setting": "[1]; 10 mg", "result": "no drug-related diarrhea was observed"},
      {"measurement": "treatment-related Grade ≥2 AEs", "setting": "[1]; 10 mg dose cohort", "result": "No treatment-related Grade ≥2 AEs were observed"},
      {"measurement": "drug-related diarrhea", "setting": "[1]; 20 mg", "result": "no drug-related diarrhea was observed"},
      {"measurement": "patients who developed diarrhea", "setting": "[1]; 40 mg", "result": 50, "unit": "%"},
      {"measurement": "Discontinued due to other toxicity, n (%)", "setting": "[1]; 40 mg/day", "result": "1 (12.5) n (%)"},
      {"measurement": "patients who developed diarrhea", "setting": "[1]; 55 mg", "result": 90, "unit": "%"},
      {"measurement": "Discontinued due to other toxicity, n (%)", "setting": "[1]; 55 mg/day", "result": "4 (20.0) n (%)"},
      {"measurement": "Discontinued due to other toxicity, n (%)", "setting": "[1]; 65 mg/day", "result": "2 (33.3) n (%)"},
      {"measurement": "patients who developed diarrhea", "setting": "[1]; 65 mg/day", "result": 100, "unit": "%"},
      {"measurement": "Discontinued due to other toxicity, n (%)", "setting": "[1]; Total, all doses", "result": "7 (16.3) n (%)"},
      {"measurement": "Grade 4 or 5 AEs", "setting": "[1]; all doses", "result": "No Grade 4 or 5 AEs were observed"},
      {"measurement": "Grade ≥2 reductions in LVEF", "setting": "[1]; all doses", "result": "No patients had Grade ≥2 reductions in LVEF"},
      {"measurement": "cases in which diarrhea started within 1–7 days after treatment initiation", "setting": "[1]; all doses", "result": 80, "unit": "%"},
      {"measurement": "patients who experienced a serious adverse event (SAE)", "setting": "[1]; all doses", "result": 34.9, "unit": "%"},
      {"measurement": "patients with drug-related AEs within their first 28-day cycle", "setting": "[1]; all doses", "result": 38, "unit": "patients"},
      {"measurement": "skin events considered to be related to afatinib", "setting": "[1]; all doses", "result": 91, "unit": "%"},
      {"measurement": "drug-related anorexia", "setting": "[1]; all doses, entire trial", "result": 16.3, "unit": "%"},
      {"measurement": "drug-related diarrhea", "setting": "[1]; all doses, entire trial", "result": 65.1, "unit": "%"},
      {"measurement": "drug-related epistaxis", "setting": "[1]; all doses, entire trial", "result": 23.3, "unit": "%"},
      {"measurement": "drug-related fatigue", "setting": "[1]; all doses, entire trial", "result": 20.9, "unit": "%"},
      {"measurement": "drug-related mucosal inflammation", "setting": "[1]; all doses, entire trial", "result": 23.3, "unit": "%"},
      {"measurement": "drug-related nausea", "setting": "[1]; all doses, entire trial", "result": 41.9, "unit": "%"},
      {"measurement": "drug-related rash", "setting": "[1]; all doses, entire trial", "result": 58.1, "unit": "%"},
      {"measurement": "drug-related stomatitis", "setting": "[1]; all doses, entire trial", "result": 25.6, "unit": "%"},
      {"measurement": "drug-related vomiting", "setting": "[1]; all doses, entire trial", "result": 34.9, "unit": "%"},
      {"measurement": "start of skin events after treatment initiation", "setting": "[1]; majority of cases", "result": "7 to 28", "unit": "days"},
      {"measurement": "start of diarrhea after afatinib treatment initiation", "setting": "[1]; majority of cases (80 %)", "result": "1 to 7", "unit": "days"},
      {"measurement": "deaths during afatinib administration considered to be related to afatinib", "setting": "[1]; three deaths occurred", "result": "None"},
      {"measurement": "increase in the total number of p27^KIP1-positive epidermal keratinocytes versus pretreatment", "setting": "[2]", "result": "about 16%"},
      {"measurement": "maximum tolerated dose (MTD)", "setting": "[3]", "result": 55, "unit": "mg/day"},
      {"measurement": "time to reach steady-state", "setting": "[4]", "result": "≤ 8", "unit": "days"},
      {"measurement": "AUC0–24,ss,norm", "setting": "[4]; 10 mg", "result": "6.37 (99.8) [ng·h/mL]/mg"},
      {"measurement": "Cmax,ss,norm", "setting": "[4]; 10 mg", "result": "0.399 (83.7) [ng/mL]/mg"},
      {"measurement": "AUC0–24,ss,norm", "setting": "[4]; 20 mg", "result": "22.8 (61.8) [ng·h/mL]/mg"},
      {"measurement": "Cmax,ss,norm", "setting": "[4]; 20 mg", "result": "1.57 (94.1) [ng/mL]/mg"},
      {"measurement": "AUC0–24,ss,norm", "setting": "[4]; 40 mg", "result": "22.7 (69.1) [ng·h/mL]/mg"},
      {"measurement": "Cmax,ss,norm", "setting": "[4]; 40 mg", "result": "1.47 (83.7) [ng/mL]/mg"},
      {"measurement": "AUC0–24,ss,norm", "setting": "[4]; 55 mg", "result": "24.7 (68.1)^b [ng·h/mL]/mg"},
      {"measurement": "Cmax,ss,norm", "setting": "[4]; 55 mg", "result": "1.65 (67.8)^b [ng/mL]/mg"},
      {"measurement": "t½,ss", "setting": "[5]", "result": 25.8, "unit": "h"},
      {"measurement": "change in level of pMAPK in normal skin punch biopsies", "setting": "[6]", "result": "No significant changes"},
      {"measurement": "reduction of the number of Ki-67-positive cells in skin biopsies", "setting": "[7]", "result": 31, "unit": "%"},
      {"measurement": "Discontinued due to DLT, n (%)", "setting": "[8]", "result": "4 (9.3) n (%)"},
      {"measurement": "DLTs occurring during the first treatment cycle, n (%)", "setting": "[8]; 28 day", "result": "11 (25.6) n (%)"},
      {"measurement": "recommended dose for further studies using this schedule", "setting": "[8]; 28 day", "result": 40, "unit": "mg/day"},
      {"measurement": "Tmax", "setting": "clinical; 10 mg", "result": 4, "unit": "h"},
      {"measurement": "half-life", "setting": "clinical; 10 mg", "result": 35.7, "unit": "h"},
      {"measurement": "AUC(0-t)", "setting": "clinical; 10 mg", "result": 63.7, "unit": "ng·h/mL"},
      {"measurement": "CL/F", "setting": "clinical; 10 mg", "result": 2620, "unit": "mL/min"},
      {"measurement": "Cmax", "setting": "clinical; 10 mg", "result": 3.99, "unit": "ng/mL"},
      {"measurement": "Vd/F", "setting": "clinical; 10 mg", "result": 8080, "unit": "L"},
      {"measurement": "half-life", "setting": "clinical; 20 mg", "result": 43.2, "unit": "h"},
      {"measurement": "AUC(0-t)", "setting": "clinical; 20 mg", "result": 455, "unit": "ng·h/mL"},
      {"measurement": "CL/F", "setting": "clinical; 20 mg", "result": 732, "unit": "mL/min"},
      {"measurement": "Cmax", "setting": "clinical; 20 mg", "result": 31.3, "unit": "ng/mL"},
      {"measurement": "Vd/F", "setting": "clinical; 20 mg", "result": 2740, "unit": "L"},
      {"measurement": "half-life", "setting": "clinical; 40 mg", "result": 42.8, "unit": "h"},
      {"measurement": "CL/F", "setting": "clinical; 40 mg", "result": 734, "unit": "mL/min"},
      {"measurement": "Cmax", "setting": "clinical; 40 mg", "result": 58.9, "unit": "ng/mL"},
      {"measurement": "Vd/F", "setting": "clinical; 40 mg", "result": 2720, "unit": "L"},
      {"measurement": "half-life", "setting": "clinical; 55 mg", "result": 35.1, "unit": "h"},
      {"measurement": "AUC(0-t)", "setting": "clinical; 55 mg", "result": 1360, "unit": "ng·h/mL"},
      {"measurement": "CL/F", "setting": "clinical; 55 mg", "result": 653, "unit": "mL/min"},
      {"measurement": "Cmax", "setting": "clinical; 55 mg", "result": 90.8, "unit": "ng/mL"},
      {"measurement": "Vd/F", "setting": "clinical; 55 mg", "result": 2040, "unit": "L"},
      {"measurement": "Tmax", "setting": "clinical; 65 mg", "result": 9, "unit": "h"},
      {"measurement": "change in level of pAkt in paired skin biopsies", "setting": "[9]", "result": "no significant difference"},
      {"measurement": "Discontinued due to disease progression, n (%)", "setting": "advanced solid tumors; 10 mg/day", "result": "3 (100.0) n (%)"},
      {"measurement": "Discontinued due to disease progression, n (%)", "setting": "advanced solid tumors; 20 mg/day", "result": "2 (33.3) n (%)"},
      {"measurement": "Discontinued due to disease progression, n (%)", "setting": "advanced solid tumors; 40 mg/day", "result": "3 (37.5) n (%)"},
      {"measurement": "Discontinued due to disease progression, n (%)", "setting": "advanced solid tumors; 55 mg/day", "result": "8 (40.0) n (%)"},
      {"measurement": "Discontinued due to disease progression, n (%)", "setting": "advanced solid tumors; 65 mg/day", "result": "1 (16.7) n (%)"},
      {"measurement": "confirmed objective responses", "setting": "advanced solid tumors; RECIST 1.0, all doses", "result": "no confirmed objective responses"},
      {"measurement": "Discontinued due to disease progression, n (%)", "setting": "advanced solid tumors; Total, all doses", "result": "17 (39.5) n (%)"},
      {"measurement": "decrease in tumor size", "setting": "advanced solid tumors; one patient with CRC", "result": 14, "unit": "%"},
      {"measurement": "decrease in tumor size", "setting": "advanced solid tumors; one patient with NSCLC", "result": 27, "unit": "%"},
      {"measurement": "tumor shrinkage", "setting": "advanced solid tumors; one patient with parotid carcinoma, Cycle 4, maintained until Cycle 6", "result": 13, "unit": "%"},
      {"measurement": "patients with stable disease for at least 16 weeks", "setting": "advanced solid tumors; received at least 5 cycles of treatment", "result": 8, "unit": "patients"}
    ]}
  ]
}
